Where two headings read alike, the source gives them in different places.
How the values were obtained:
[1] = system: Beet Armyworm (Spodoptera exigua) ("BAW"), second instar larvae; assay: Bioassay on beet armyworm (BAW), 128-well diet tray assay; format: in vivo; details: for BAW (Biological Results, rating): Beet Armyworm (Spodoptera exigua), C = Not Tested; for BAW rating: Table ABC, species BAW, C = not tested, D = no activity noticed; for pest or weed control at 50 µg/cm2: Spodoptera exigua
Outline: (§1)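 Mortality (%) is scored well by well after five to seven days at 25° C. on a 14:10 light:dark regime. The value given is the mean of eight wells.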

[2] = system: Cabbage Looper (Trichoplusia ni) ("CL"), second instar larvae; assay: Bioassay on cabbage looper (CL), 128-well diet tray assay; format: in vivo; details: for CL (Biological Results, rating): Cabbage Looper (Trichoplusia ni), C = Not Tested; for CL rating: Table ABC, species CL, C = not tested, D = no activity noticed; for pest or weed control at 50 µg/cm2: Trichoplusia ni
Outline: as §1

[3] = read-out: BAW (Biological Results, rating)
[4] = read-out: CL (Biological Results, rating)

| Compound | pest or weed control at 50 µg/cm2 ([1]; read-out: BAW rating) [%] | pest or weed control at 50 µg/cm2 ([2]; read-out: CL rating) [%] | further results |
| --- | --- | --- | --- |
| CC(C)c1cc(F)c(N(C)C)cc1N1C(=O)CS/C1=N\C(=O)Nc1ccc(-c2ncn(-c3ccc(C(F)(F)F)cn3)n2)cc1F [Compound J352] | – | – | BAW (Biological Results, rating) [1]: A (50-100); CL (Biological Results, rating) [2]: A (50-100) |
| Cc1ccc(COCC(F)(F)F)c(N2C(=O)CS/C2=N\C(=O)Nc2ccc(-c3ncn(-c4ccc(C(F)(F)F)nn4)n3)cc2F)c1 [Compound J394] | – | – | BAW rating [1]: A (50-100); CL rating [2]: A (50-100) |
| CC(C)c1ccc(N(C)C)cc1N1C(=O)CS/C1=N\C(=O)Nc1ccc(-c2ncn(-c3ccc([S+]([O-])C(F)(F)F)cc3)n2)cc1F (stereo not drawn) [Compound J379, (Z)-1-(3-(5-(Dimethylamino)-2-isopropylphenyl)-4-oxothiazolidin-2-ylidene)-3-(2-fluoro-4-(1-(4-((trifluoromethyl)sulfinyl)phenyl)-1H-1,2,4-triazol-3-yl)phenyl)urea] | 50 to 100 | 50 to 100 | – |
| Cc1ccc(C(C)C)c(N2C(=O)CS/C2=N\C(=O)Nc2ccc(-c3cn(-c4ccc(C(F)(F)F)cn4)cn3)cc2C)c1 [Compound J509, (Z)-1-(3-(2-Isopropyl-5-methylphenyl)-4-oxothiazolidin-2-ylidene)-3-(2-methyl-4-(1-(5-(trifluoromethyl)pyridin-2-yl)-1H-imidazol-4-yl)phenyl)urea] | 50 to 100 | 50 to 100 | – |
| Cc1ccc(OCCC(F)(F)F)c(N2C(=O)CS/C2=N\C(=O)Nc2ccc(-c3ncn(-c4ccc(OCC#N)cc4)n3)cc2C)c1 [Compound J360, (Z)-1-(4-(1-(4-(Cyanomethoxy)phenyl)-1H-1,2,4-triazol-3-yl)-2-methylphenyl)-3-(3-(5-methyl-2-(3,3,3-trifluoropropoxy)phenyl)-4-oxothiazolidin-2-ylidene)urea] | 50 to 100 | 50 to 100 | – |
| Cc1ccc(COCC(F)(F)F)c(N2C(=O)CS/C2=N\C(=O)Nc2ccc(-c3cn(-c4ccc(C(F)(F)F)cc4)cn3)cc2C)c1 [Compound J526, (Z)-1-(3-(5-Methyl-2-((2,2,2-trifluoroethoxy)methyl)phenyl)-4-oxothiazolidin-2-ylidene)-3-(2-methyl-4-(1-(4-(trifluoromethyl)phenyl)-1H-imidazol-4-yl)phenyl)urea] | 50 to 100 | 50 to 100 | – |
| N#Cc1ccc(OCCC(F)(F)F)c(N2C(=O)CS/C2=N\C(=O)Nc2ccc(-c3ncn(-c4ccc(S(=O)(=O)C(F)(F)F)cc4)n3)cc2F)c1 [Compound J372, (Z)-1-(3-(5-Cyano-2-(3,3,3-trifluoropropoxy)phenyl)-4-oxothiazolidin-2-ylidene)-3-(2-fluoro-4-(1-(4-((trifluoromethyl)sulfonyl)phenyl)-1H-1,2,4-triazol-3-yl)phenyl)urea] | 50 to 100 | 50 to 100 | – |
| Cc1ccc(COCC(F)(F)F)c(N2C(=O)CS/C2=N\C(=O)Nc2ccc(-c3ncn(-c4ccc(SC(F)(F)F)cc4)n3)cc2)c1 [Compound J367, (Z)-1-(3-(5-Methyl-2-((2,2,2-trifluoroethoxy)methyl)phenyl)-4-oxothiazolidin-2-ylidene)-3-(4-(1-(4-((trifluoromethyl)thio)phenyl)-1H-1,2,4-triazol-3-yl)phenyl)urea] | 50 to 100 | 50 to 100 | – |
| COc1ccc(COCC(F)(F)F)c(N2C(=O)CS/C2=N\C(=O)Nc2ccc(-c3ncn(-c4ccc(OC(F)(F)F)cc4)n3)cc2F)c1 [Compound J564] | – | – | BAW rating [1]: A (50-100); CL rating [2]: A (50-100) |
| CC(C)c1ccc(N(C)C)cc1N1C(=O)CS/C1=N\C(=O)Nc1ccc(-c2ncn(-c3ccc(S(F)(F)(F)(F)F)cc3)n2)cc1C#N [Compound J585] | – | – | BAW rating [1]: A (50-100); CL rating [2]: A (50-100) |
| Cc1cc(COCC(F)(F)F)c(N2C(=O)CS/C2=N\C(=O)Nc2ccc(-c3ncn(-c4ccc(S(F)(F)(F)(F)F)cc4)n3)cc2C(F)(F)F)cc1C [Compound J632, (Z)-1-(3-(4,5-Dimethyl-2-((2,2,2-trifluoroethoxy)methyl)phenyl)-4-oxothiazolidin-2-ylidene)-3-(4-(1-(4-(pentafluoro-λ^6-sulfaneyl)phenyl)-1H-1,2,4-triazol-3-yl)-2-(trifluoromethyl)phenyl)urea] | 50 to 100 | 50 to 100 | – |
| COc1ccc(CC(F)(F)F)c(N2C(=O)CS/C2=N\C(=O)NCC(F)c2ccc(-c3ncn(-c4ccc(OC(F)(F)F)cc4)n3)cc2C)c1 (stereo not drawn) [Compound H16] | – | – | pest or weed control at 50 µg/cm2 [1, 3]: 50 to 100%; pest or weed control at 50 µg/cm2 [2, 4]: 50 to 100% |
| CCCc1ccc(N(C)C)cc1N1C(=O)CS/C1=N\C(=O)Nc1ccc(-c2ncn(-c3ccc([S+]([O-])C(F)(F)F)cc3)n2)cc1F (stereo not drawn) [Compound J383, (Z)-1-(3-(5-(Dimethylamino)-2-propylphenyl)-4-oxothiazolidin-2-ylidene)-3-(2-fluoro-4-(1-(4-((trifluoromethyl)sulfinyl)phenyl)-1H-1,2,4-triazol-3-yl)phenyl)urea] | 50 to 100 | 50 to 100 | – |
| COCc1ccc(N(C)C)cc1N1C(=O)CS/C1=N\C(=O)Nc1ccc(-c2noc(-c3ccc(OC(F)(F)F)cc3)n2)cc1F [Compound J773, (Z)-1-(3-(5-(Dimethylamino)-2-(methoxymethyl)phenyl)-4-oxothiazolidin-2-ylidene)-3-(2-fluoro-4-(5-(4-(trifluoromethoxy)phenyl)-1,2,4-oxadiazol-3-yl)phenyl)urea] | 50 to 100 | 50 to 100 | – |
| CCOCc1ccc(C)cc1N1C(=O)CS/C1=N\C(=O)Nc1ccc(-c2ncn(-c3ccc(OC)cc3)n2)cc1F [Compound J755, (Z)-1-(3-(2-(Ethoxymethyl)-5-methylphenyl)-4-oxothiazolidin-2-ylidene)-3-(2-fluoro-4-(1-(4-methoxyphenyl)-1H-1,2,4-triazol-3-yl)phenyl)urea] | 50 to 100 | 50 to 100 | – |
| Cc1ccc(CC(C)C)c(N2C(=O)CS/C2=N\C(=O)Nc2ccc(-c3ncn(-c4ccc(OC(F)(F)F)cc4)n3)cc2F)c1 [Compound J47, (Z)-1-(2-Fluoro-4-(1-(4-(trifluoromethoxy)phenyl)-1H-1,2,4-triazol-3-yl)phenyl)-3-(3-(2-isobutyl-5-methylphenyl)-4-oxothiazolidin-2-ylidene)urea] | – | – | pest or weed control at 50 µg/cm2 [1, 3]: 50 to 100%; pest or weed control at 50 µg/cm2 [2, 4]: 50 to 100% |
| Cc1ccc(OCCC(F)(F)F)c(N2C(=O)CS/C2=N\C(=O)Nc2ccc(-c3ncn(-c4ccc(SC(F)(F)F)cc4)n3)cc2)c1 [Compound J387, (Z)-1-(3-(5-Methyl-2-(3,3,3-trifluoropropoxy)phenyl)-4-oxothiazolidin-2-ylidene)-3-(4-(1-(4-((trifluoromethyl)thio)phenyl)-1H-1,2,4-triazol-3-yl)phenyl)urea] | 50 to 100 | 50 to 100 | – |
| Cc1cc(-n2cnc(-c3ccc(OC(F)(F)F)cc3)n2)ccc1NC(=O)/N=C1\SCC(=O)N1c1cc(N(C)C)ccc1C(F)(F)F [Compound J468, (Z)-1-(3-(5-(Dimethylamino)-2-(trifluoromethyl)phenyl)-4-oxothiazolidin-2-ylidene)-3-(2-methyl-4-(3-(4-(trifluoromethoxy)phenyl)-1H-1,2,4-triazol-1-yl)phenyl)urea] | 50 to 100 | 50 to 100 | – |
| CCCc1ccc(C)cc1N1C(=O)CS/C1=N\C(=O)Nc1ccc(-c2ncn(-c3ccc(OC(F)(F)F)cc3)n2)cc1C [Compound J53, (Z)-1-(3-(5-Methyl-2-propylphenyl)-4-oxothiazolidin-2-ylidene)-3-(2-methyl-4-(1-(4-(trifluoromethoxy)phenyl)-1H-1,2,4-triazol-3-yl)phenyl)urea] | – | – | pest or weed control at 50 µg/cm2 [1, 3]: 50 to 100%; pest or weed control at 50 µg/cm2 [2, 4]: 50 to 100% |
| Cc1ccc(COCC(F)(F)F)c(N2C(=O)CS/C2=N\C(=O)Nc2ccc(-c3ncn(-c4ccc(C(F)F)cn4)n3)cc2F)c1 [Compound J346] | – | – | BAW (Biological Results, rating) [1]: A (50-100); CL (Biological Results, rating) [2]: A (50-100) |
| COC(C)c1ccc(C)cc1N1C(=O)CS/C1=N\C(=O)Nc1ccc(-c2nc(-c3ccc(OC(F)(F)F)cc3)no2)cc1F (stereo not drawn) [Compound J434, (Z)-1-(2-Fluoro-4-(3-(4-(trifluoromethoxy)phenyl)-1,2,4-oxadiazol-5-yl)phenyl)-3-(3-(2-(1-methoxyethyl)-5-methylphenyl)-4-oxothiazolidin-2-ylidene)urea] | 50 to 100 | 50 to 100 | – |
| Cc1ccc(COCC(F)(F)F)c(N2C(=O)CS/C2=N\C(=O)Nc2ccc(-c3noc(-c4ccc(OC(F)(F)F)cc4)n3)cc2F)c1 [Compound J770, (Z)-1-(2-Fluoro-4-(5-(4-(trifluoromethoxy)phenyl)-1,2,4-oxadiazol-3-yl)phenyl)-3-(3-(5-methyl-2-((2,2,2-trifluoroethoxy)methyl)phenyl)-4-oxothiazolidin-2-ylidene)urea] | 50 to 100 | 50 to 100 | – |
| Cc1ccc(C(C)C)c(N2C(=O)CS/C2=N\C(=O)Nc2ccc(-c3cn(-c4ccc(OC(F)(F)F)cc4)cn3)cc2C)c1 [Compound J477, (Z)-1-(3-(2-Isopropyl-5-methylphenyl)-4-oxothiazolidin-2-ylidene)-3-(2-methyl-4-(1-(4-(trifluoromethoxy)phenyl)-1H-imidazol-4-yl)phenyl)urea] | 50 to 100 | 50 to 100 | – |
| Cc1ccc(OCCC(F)(F)F)c(N2C(=O)CS/C2=N\C(=O)Nc2ccc(-n3cnc(-c4ccc(OC(F)(F)F)cc4)n3)cc2F)c1 [Compound J693, (Z)-1-(2-Fluoro-4-(3-(4-(trifluoromethoxy)phenyl)-1H-1,2,4-triazol-1-yl)phenyl)-3-(3-(5-methyl-2-(3,3,3-trifluoropropoxy)phenyl)-4-oxothiazolidin-2-ylidene)urea] | 50 to 100 | 50 to 100 | – |

From patent US20230077362A1 (CORTEVA AGRISCIENCE LLC, priority 2019, published 2023)
